Assay results published in patent US20170037471A1, “METHODS FOR DIAGNOSING & TREATING COPPER-DEPENDENT DISEASES” (Duke University, priority 2013, published 2017).
Residues, ends and D or L forms follow the SMILES beside them. *: point of attachment. Cbz = O=C(OCc1ccccc1)*; CHN2 = [N-]=[N+]=C*; tBu = CC(C)(C)*

Columns and labels:
[1] = test system: Ctr1 cleavage; assay: Ctr1 cleavage in wild type and Cathepsin L-/- mouse embryonic fibroblasts, anti-Ctr1 immunoblot; type: cell-based; details: 10 μM, 16 hours, immunoblot (FIG. 7)
Method: Mouse embryonic fibroblasts from wild type and CatL^−/− littermates were cultured in medium supplemented with 10% fetal bovine serum and treated with DMSO or 10 μM of the cell permeable cysteine protease inhibitor E64d and harvested 16 hours later. Total proteins were isolated from the cells by homogenizing cells in ice cold PBS supplemented with 1% Triton-X, 0.1% SDS, and 1 mM EDTA. Cell debris was removed by centrifugation and the total amounts of soluble proteins were quantified in each sample. Equal amounts of proteins were separated on tris/glycine gradient gel, transferred to nitrocellulose membrane and blocked with 5% non-fat milk in Tris buffered saline supplemented with 0.05% Tween (TBST) for 1 h. Membranes were incubated with anti-Ctr1 antibody (1:1000) followed by anti-rabbit-HRP coupled antibody (1:5000) and bands detected by enhanced chemiluminescent substrate. Anti-Tubulin antibody was used as loading control.
Lanes 1 and 2 are duplicate samples from untreated wild type cells and lanes 5 and 6 are duplicate samples from untreated Cathepsin L knock out cells.

[2] = test system: human Ctr1 protein containing the proline to alanine substitution at position 25 (Ctr1^P25A); assay: Ctr1^P25A cleavage protection in stably transfected Ctr1-/- mouse embryonic fibroblasts, anti-Ctr1 immunoblot; type: cell-based; details: Ctr1-/- MEFs expressing human Ctr1^P25A, 10 μM, 16 hours, immunoblot (FIG. 8)
Method: Mouse embryonic fibroblasts from Ctr1^−/− embryos were stably transfected with plasmids expressing either the wild type human Ctr1 protein or the human Ctr1 protein containing the proline to alanine substitution at position 25 (Ctr1^P25A). Cells were cultured in medium supplemented with 20% fetal bovine serum and treated with DMSO or 10 μM cysteine protease […], Z-FY(t-Bu)-DMK and harvested 16 hours later. Total proteins were isolated from the cells by homogenizing cells in ice cold PBS supplemented with 1% Triton-X, 0.1% SDS, and 1 mM EDTA. Cell debris was removed by centrifugation and the total amounts of soluble proteins were quantified in each sample. Equal amounts of proteins were separated on tris/glycine gradient gel, transferred to nitrocellulose membrane and blocked with 5% non-fat milk in Tris buffered saline supplemented with 0.05% Tween (TBST) for 1 h. Membranes were incubated with anti-Ctr1 antibody (1:1000) followed by anti-rabbit-HRP coupled antibody (1:5000) and bands detected by enhanced chemiluminescent substrate. Anti-Actin antibody was used as loading control.

SMILES | levels of cleaved Ctr1 ([1]; Cathepsin L knock out MEFs) | levels of cleaved Ctr1 ([1]; wild type MEFs) | reduction in full length form of Ctr1^P25A [2]
CCOC(=O)[C@H]1O[C@@H]1C(=O)N[C@@H](CC(C)C)C(=O)NCCC(C)C (relative stereo) [E64d, (2S,3S)-trans-Epoxysuccinyl-L-leucylamido-3-methylbutane ethyl ester] | not Cathepsin L knock out cells | dramatic reduction in the levels of cleaved Ctr1 | 
CC(C)(C)Oc1ccc(CC(NC(=O)C(Cc2ccccc2)NC(=O)OCc2ccccc2)C(=O)C=[N+]=[N-])cc1 (stereo not drawn) [Z-FY(t-Bu)-DMK, benzyl (1-((1-(4-(tert-butoxy)phenyl)-4-diazo-3-oxobutan-2-yl)amino)-1-oxo-3-phenylpropan-2-yl)carbamate] (Cbz-Phe-Tyr(tBu)-CHN2; configuration not given here) |  |  | can be alleviated by treatment with Cathepsin L inhibitors
